{
  "source": "patent US5164507A",
  "about": "“Antibiotic pyridine compound” (Meiji Seika Kaisha Ltd., priority 1990, dated 1992)",
  "key": {"Candida albicans M9001": {"tested_on": "Candida albicans M9001", "assay": "MIC (minimum growth inhibitory concentration) on test microorganisms", "assay_type": "cell-based", "excerpt": "(§1) Minimum growth inhibitory concentrations (MIC) of a hydrochloride of substance SF 2698 on various test microorganisms are shown in Table 1 below."}, "[1]": {"tested_on": "Candida glabrata IFO-0005", "assay": "MIC (minimum growth inhibitory concentration) on test microorganisms", "assay_type": "cell-based", "conditions": "Nakaseomyces glabratus, IFO0005", "excerpt": "as §1"}, "[2]": {"tested_on": "Candida glabrata IFO-0622", "assay": "MIC (minimum growth inhibitory concentration) on test microorganisms", "assay_type": "cell-based", "conditions": "Nakaseomyces glabratus, IFO0622", "excerpt": "as §1"}, "Candida utilis M9007": {"tested_on": "Candida utilis M9007", "assay": "MIC (minimum growth inhibitory concentration) on test microorganisms", "assay_type": "cell-based", "conditions": "Williopsis jadinii", "excerpt": "as §1"}, "[3]": {"tested_on": "Cryptococcus neoformans M9010", "assay": "MIC (minimum growth inhibitory concentration) on test microorganisms", "assay_type": "cell-based", "excerpt": "as §1"}, "mice": {"tested_on": "mice", "assay": "toxicity by intravenous injection to mice", "assay_type": "in vivo", "conditions": "dose of 100 mg/kg", "excerpt": "Further, toxicity of a hydrochloride of substance SF2698 was examined by administering to mice the test compound by intravenous injection."}, "Solubility": {"assay": "Solubility", "assay_type": "physicochemical"}, "eumycetes": {"tested_on": "eumycetes", "assay": "antimicrobial activity (Table 1, summary)", "assay_type": "cell-based", "conditions": "against certain kinds of eumycetes, from Table 1", "excerpt": "as §1"}},
  "note": "Structures can show the parent of a compound that is named as a salt.",
  "data": [
    {"smiles": "N=C1C=CCC(C(=O)O)N1", "note": "(stereo not shown) [hydrochloride of substance SF 2698]", "values": [
      {"measurement": "MIC", "setting": "Candida albicans M9001", "value": "> 100", "unit": "mg/L"},
      {"measurement": "MIC", "setting": "[1]", "value": 0.2, "unit": "mg/L"},
      {"measurement": "MIC", "setting": "[2]", "value": 0.78, "unit": "mg/L"},
      {"measurement": "MIC", "setting": "Candida utilis M9007", "value": 12.5, "unit": "mg/L"},
      {"measurement": "MIC", "setting": "[3]", "value": "> 100", "unit": "mg/L"},
      {"measurement": "case of death", "setting": "mice", "value": "no case of death"},
      {"measurement": "Solubility", "setting": "Solubility; in methanol", "value": "soluble"},
      {"measurement": "Solubility", "setting": "Solubility; in organic solvents, e.g., ethyl acetate", "value": "insoluble"},
      {"measurement": "Solubility", "setting": "Solubility; in water", "value": "soluble"},
      {"measurement": "antimicrobial activity", "setting": "eumycetes", "value": "exhibits antimicrobial activity against certain kinds of eumycetes"}
    ]}
  ]
}
